Laboratory results as given in the supplement of paper PMC4862054.

Tests used:
BT-474 [1] = experiment: drug sensitivity score (DSS), CellTox Green (DSS (AUC-based score)); higher = stronger drug effect (viability inhibition or cytotoxicity); extreme values may be limits of the assay; details: incubation time: 72 h
Procedure, shortened: (§1)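 Breast cancer cell lines were seeded in 20 µl suspension into 384-well plates already holding compound and incubated for 72 h. Each compound was tested at 5 concentrations in 10-fold steps across its own 10,000-fold range. Plates were normalised to 0.1 % DMSO and a positive kill control after CellTox Green and then CellTiter-Glo readings. The area under the fitted dose-response curve served as the basis for the drug sensitivity score.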

CAL-120 [2] = experiment: as above; details: incubation time: 72 h
Procedure, shortened: as §1

CAL-148 [3] = experiment: as above; details: incubation time: 72 h
Procedure, shortened: as §1

CAL-85-1 [4] = experiment: as above; details: incubation time: 72 h
Procedure, shortened: as §1

HCC1937 [5] = experiment: as above; details: incubation time: 72 h
Procedure, shortened: as §1

MCF-10A = experiment: as above; details: incubation time: 72 h
Procedure, shortened: as §1

MDA-MB-231 [6] = experiment: as above; details: incubation time: 72 h
Procedure, shortened: as §1

MDA-MB-453 [7] = experiment: as above; details: incubation time: 72 h
Procedure, shortened: as §1

MFM-223 [8] = experiment: as above; details: incubation time: 72 h
Procedure, shortened: as §1

BT-474 [9] = experiment: normalised viability (% of control), CellTiter-Blue; higher = more viable cells (about 100 = DMSO control); details: 100 nM; incubation time: 72 h
Description: (§2)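 DSRT, CellTiter-Blue viability, 72 h incubation. Signal is normalised to DMSO and benzethonium chloride controls. Value is the normalised response at dose 3.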

BT-549 = experiment: as above; details: 100 nM; incubation time: 72 h
Description: as §2

CAL-120 [10] = experiment: as above; details: 100 nM; incubation time: 72 h
Description: as §2

CAL-148 [11] = experiment: as above; details: 10 nM; incubation time: 72 h
Description: as §2

CAL-51 = experiment: as above; details: 10 nM; incubation time: 72 h
Description: as §2

CAL-85-1 [12] = experiment: as above; details: 10 nM; incubation time: 72 h
Description: as §2

DU-4475 = experiment: as above; details: 10 nM; incubation time: 72 h
Description: as §2

HCC1143 [13] = experiment: as above; details: 100 nM; incubation time: 72 h
Description: as §2

HCC1599 = experiment: as above; details: 100 nM; incubation time: 72 h
Description: as §2

HCC1937 [14] = experiment: as above; details: 100 nM; incubation time: 72 h
Description: as §2

HDQ-P1 = experiment: as above; details: 10 nM; incubation time: 72 h
Description: as §2

Hs578T = experiment: as above; details: 100 nM; incubation time: 72 h
Description: as §2

MDA-MB-231 [15] = experiment: as above; details: 100 nM; incubation time: 72 h
Description: as §2

MDA-MB-436 = experiment: as above; details: 100 nM; incubation time: 72 h
Description: as §2

MDA-MB-453 [16] = experiment: as above; details: 10 nM; incubation time: 72 h
Description: as §2

MDA-MB-468 = experiment: as above; details: 100 nM; incubation time: 72 h
Description: as §2

MFM-223 [17] = experiment: as above; details: 100 nM; incubation time: 72 h
Description: as §2

SK-BR-3 = experiment: as above; details: 100 nM; incubation time: 72 h
Description: as §2

HCC1143 [18] = experiment: drug sensitivity score (DSS), CellTox Green (DSS (AUC-based score)); higher = stronger drug effect (viability inhibition or cytotoxicity); extreme values may be limits of the assay; details: incubation time: 72 h
Procedure, shortened: as §1

Structure (SMILES)	drug sensitivity score (BT-474 [1])	drug sensitivity score (CAL-120 [2])	drug sensitivity score (CAL-148 [3])	drug sensitivity score (CAL-85-1 [4])	drug sensitivity score (HCC1937 [5])	drug sensitivity score (MCF-10A)	drug sensitivity score (MDA-MB-231 [6])	drug sensitivity score (MDA-MB-453 [7])	drug sensitivity score (MFM-223 [8])	normalised viability (BT-474 [9]) [%]	normalised viability (BT-549) [%]	normalised viability (CAL-120 [10]) [%]	normalised viability (CAL-148 [11]) [%]	normalised viability (CAL-51) [%]	normalised viability (CAL-85-1 [12]) [%]	normalised viability (DU-4475) [%]	normalised viability (HCC1143 [13]) [%]	normalised viability (HCC1599) [%]	normalised viability (HCC1937 [14]) [%]	normalised viability (HDQ-P1) [%]	normalised viability (Hs578T) [%]	normalised viability (MDA-MB-231 [15]) [%]	normalised viability (MDA-MB-436) [%]	normalised viability (MDA-MB-453 [16]) [%]	normalised viability (MDA-MB-468) [%]	normalised viability (MFM-223 [17]) [%]	normalised viability (SK-BR-3) [%]	drug sensitivity score (HCC1143 [18])
CCn1c(-c2nonc2N)nc2cnc(Oc3cccc(NC(=O)c4ccc(OCCN5CCOCC5)cc4)c3)cc21	0	0	0	0	0	0	4.85	0	0	–	–	–	–	–	–	–	–	–	–	–	–	–	–	–	–	–	–	–
Cc1cc(Nc2cc(CN3CCOCC3)c3nc(C)c(Cc4ccc(Cl)cc4F)n3n2)n[nH]1	–	–	–	–	–	–	–	–	–	102	93.5	74.5	97.9	95	91.6	99.6	71.4	122	101	92.8	85.9	102	108	91.1	103	67.9	87.1	–
N#Cc1ccc(COC[C@H]2O[C@@H](n3c(NCc4ccc(Cl)c(Cl)c4)nc4c(N)ncnc43)[C@H](O)[C@@H]2O)cc1	0	0	0	2.89	0	0	0	0	3.38	123	95.2	106	103	109	110	111	94.7	97.1	99.4	116	95.8	90.1	104	105	94.5	93.9	89.7	0
COc1cc(O)c2c(c1)/C=C/C[C@H](O)[C@H](O)C(=O)/C=C\C[C@H](C)OC2=O [(5Z)-7-Oxozeaenol]	1.65	0	16.9	18.5	18.1	0	9.09	0	8.77	–	–	–	–	–	–	–	–	–	–	–	–	–	–	–	–	–	–	0
COc1cc(OC2CCN(C)CC2)ccc1Nc1ncc2c(n1)n(C1CCCC1)c(=O)n2C [AZ 3146]	0	0	0	0	–	0	0	0	0	113	85	121	105	92.3	94.8	101	133	90.1	81.8	79.1	82	96.1	93.5	88.2	106	105	97.3	0
CNC(=O)c1cccc(-c2ccc3c(N4CCOC[C@@H]4C)nc(N4CCOC[C@@H]4C)nc3n2)c1 [AZD2014]	0	0	11	0	0	0	0	0	3.63	–	–	–	–	–	–	–	–	–	–	–	–	–	–	–	–	–	–	0
COC(=O)c1ccc2c(c1)NC(=O)/C2=C(\Nc1ccc(N(C)C(=O)CN2CCN(C)CC2)cc1)c1ccccc1 [BIBF 1120]	–	–	–	–	–	–	–	–	–	130	111	95.4	100	104	99.9	114	88.2	91.3	115	122	104	104	98.9	101	111	79.1	91.6	–
Nc1cc(C(F)(F)F)c(-c2cc(N3CCOCC3)nc(N3CCOCC3)n2)cn1 [BKM-120]	–	–	–	–	–	–	–	–	–	115	96.8	81.3	94.9	98.5	86.6	98.3	86.1	70.1	112	111	96.6	83.6	90.2	96	99.2	84	76.7	–
Nc1cc(C(F)(F)F)c(-c2cc(N3CCOCC3)nc(N3CCOCC3)n2)cn1 [Buparlisib]	3.4	0	0	0	0	0.18	7.38	0	0	–	–	–	–	–	–	–	–	–	–	–	–	–	–	–	–	–	–	0
CNC(=O)c1ccc(N2C(=S)N(c3ccc(C#N)c(C(F)(F)F)c3)C(=O)C2(C)C)cc1F [Enzalutamide]	0	0	0	0	0	0	0	0	0	–	–	–	–	–	–	–	–	–	–	–	–	–	–	–	–	–	–	0
